Data published in paper PMC5908784, “Extracellular loops 2 and 3 of the calcitonin receptor selectively modify agonist binding and efficacy” (Biochemical Pharmacology, 2018).
Changes are numbered by the printed parent chain. Where a SMILES comes first, the peptide text is derived from it. Bridges are numbered along the chain shown (N, C = ends).

Key:
Test in all cases: cAMP accumulation
Type in all cases: cell-based
Conditions in all cases: mean ± S.E.M.; for Emax: cAMP maximal response, SEM; for EC50: cAMP, CV1-FlpIn cells, 30 min, IBMX
hCTR M376A = molecular target: T1, hCTR M376A (Homo sapiens, UniProt P30988, M376A)
T1 construct: c-Myc (N); expressed in transfected cells
T1 sequence (P30988 25-474 M376A): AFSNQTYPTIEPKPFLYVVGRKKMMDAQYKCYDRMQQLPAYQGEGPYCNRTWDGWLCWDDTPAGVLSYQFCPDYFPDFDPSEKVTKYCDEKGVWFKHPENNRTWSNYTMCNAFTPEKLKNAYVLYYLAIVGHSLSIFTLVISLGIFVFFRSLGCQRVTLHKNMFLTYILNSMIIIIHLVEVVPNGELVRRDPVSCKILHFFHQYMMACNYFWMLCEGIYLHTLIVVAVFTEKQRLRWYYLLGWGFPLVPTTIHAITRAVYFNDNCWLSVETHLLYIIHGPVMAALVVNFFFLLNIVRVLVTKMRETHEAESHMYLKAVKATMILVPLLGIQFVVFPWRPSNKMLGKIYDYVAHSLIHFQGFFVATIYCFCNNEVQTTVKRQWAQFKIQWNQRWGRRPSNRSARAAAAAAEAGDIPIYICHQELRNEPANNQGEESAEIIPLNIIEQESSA
Experimental: (§1) Cells (2.5 × 10^4 cells/well) were seeded into 96-well plates and incubated overnight. Cells were stimulated with increasing concentrations of ligands for 30 min in the presence of IBMX. The liquid was discarded, changed to absolute ethanol and volatilized to dryness at room temperature. […] Data were normalized to the response of 100 μM forskolin.
(§2) Data were corrected for radioligand occupancy using the Cheng-Prusoff equation in Prism; as such data are reported as pKi. Emax and EC50 were estimated from concentration-response curves using with a 3-parameter logistic equation in Prism (v7). These values are a composite of functional affinity, efficacy and stimulus response coupling. […] Significance was accepted at P < 0.05.

hCTR F359A = molecular target: T2, hCTR F359A (Homo sapiens, UniProt P30988, F359A)
T2 construct: expressed in transfected cells
T2 sequence (P30988 25-474 F359A): T1 sequence (P30988 25-474 M376A) with F335A, A352M
Experimental: as §1, §2

hCTR F356A = molecular target: T3, hCTR F356A (Homo sapiens, UniProt P30988, F356A)
T3 construct: c-Myc (N); expressed in transfected cells
T3 sequence (P30988 25-474 F356A): T1 sequence (P30988 25-474 M376A) with F332A, A352M
Experimental: as §1, §2

hCTR Y372A = molecular target: T4, hCTR Y372A (Homo sapiens, UniProt P30988, Y372A)
T4 construct: c-Myc (N); expressed in transfected cells
T4 sequence (P30988 25-474 Y372A): T1 sequence (P30988 25-474 M376A) with Y348A, A352M
Experimental: as §1, §2

hCTR S292A = molecular target: T5, hCTR S292A (Homo sapiens, UniProt P30988, S292A)
T5 construct: expressed in transfected cells
T5 sequence (P30988 25-474 S292A): T1 sequence (P30988 25-474 M376A) with S268A, A352M
Experimental: as §1, §2

SMILES | Emax (hCTR M376A) | Emax (hCTR F359A) | Emax (hCTR F356A) | Emax (hCTR Y372A) | Emax (hCTR S292A) | EC50 (hCTR M376A) | EC50 (hCTR F359A) | EC50 (hCTR F356A) | EC50 (hCTR Y372A) | EC50 (hCTR S292A)
CC(C)C[C@H](NC(=O)[C@H](CC(N)=O)NC(=O)[C@H](CC(N)=O)NC(=O)[C@H](CO)NC(=O)[C@H](CO)NC(=O)[C@H](CCCNC(=N)N)NC(=O)[C@@H](NC(=O)[C@H](CC(C)C)NC(=O)[C@H](Cc1ccccc1)NC(=O)[C@H](CC(N)=O)NC(=O)[C@H](C)NC(=O)[C@H](CC(C)C)NC(=O)[C@H](CCCNC(=N)N)NC(=O)[C@H](CCC(N)=O)NC(=O)[C@@H](NC(=O)[C@H](C)NC(=O)[C@@H]1CSSC[C@H](NC(=O)[C@@H](N)CCCCN)C(=O)N[C@@H](CC(N)=O)C(=O)N[C@@H]([C@@H](C)O)C(=O)N[C@@H](C)C(=O)N[C@@H]([C@@H](C)O)C(=O)N1)[C@@H](C)O)C(C)C)C(=O)NCC(=O)N1CCC[C@H]1C(=O)N[C@H](C(=O)N[C@@H](CC(C)C)C(=O)N1CCC[C@H]1C(=O)N1CCC[C@H]1C(=O)N[C@H](C(=O)N[C@@H](CC(N)=O)C(=O)N[C@H](C(=O)NCC(=O)N[C@@H](CO)C(=O)N[C@@H](CC(N)=O)C(=O)N[C@H](C(=O)N[C@@H](Cc1ccc(O)cc1)C(N)=O)[C@@H](C)O)C(C)C)[C@@H](C)O)C(C)C [rAmy] | 85 ± 13% | 95 ± 9% | 126 ± 15% | 170 ± 26% | 95 ± 10% | – | – | – | – | –
CC[C@H](C)[C@H](NC(=O)[C@H](C)NC(=O)[C@@H](NC(=O)[C@H](CCC(N)=O)NC(=O)[C@@H]1CCCN1C(=O)[C@H](Cc1ccccc1)NC(=O)[C@@H](NC(=O)[C@H](Cc1c[nH]cn1)NC(=O)[C@H](Cc1ccccc1)NC(=O)[C@H](CCCCN)NC(=O)[C@H](CC(N)=O)NC(=O)[C@H](Cc1ccccc1)NC(=O)[C@H](CC(=O)O)NC(=O)[C@H](CCC(N)=O)NC(=O)[C@@H](NC(=O)[C@H](Cc1ccc(O)cc1)NC(=O)[C@@H](NC(=O)CNC(=O)[C@H](CC(C)C)NC(=O)[C@H](CCSC)NC(=O)[C@@H]1CSSC[C@H](N)C(=O)NCC(=O)N[C@@H](CC(N)=O)C(=O)N[C@@H](CC(C)C)C(=O)N[C@@H](CO)C(=O)N[C@@H]([C@@H](C)O)C(=O)N1)[C@@H](C)O)[C@@H](C)O)[C@@H](C)O)[C@@H](C)O)C(=O)NCC(=O)N[C@H](C(=O)NCC(=O)N[C@@H](C)C(=O)N1CCC[C@H]1C(N)=O)C(C)C [hCT] | 84.3 ± 10% | 130 ± 9% | 131 ± 8% | 149 ± 12% | 135 ± 13% | – | – | – | – | –
CC(C)C[C@H](NC(=O)CNC(=O)[C@H](C)NC(=O)[C@H](CC(C)C)NC(=O)[C@H](CCCNC(=N)N)NC(=O)[C@H](Cc1cnc[nH]1)NC(=O)[C@@H](NC(=O)[C@@H](NC(=O)[C@@H]1CSSC[C@H](NC(=O)[C@H](C)N)C(=O)N[C@@H](CC(=O)O)C(=O)N[C@@H]([C@@H](C)O)C(=O)N[C@@H](C)C(=O)N[C@@H]([C@@H](C)O)C(=O)N1)C(C)C)[C@@H](C)O)C(=O)N[C@@H](CC(C)C)C(=O)N[C@@H](CO)C(=O)N[C@@H](CCCNC(=N)N)C(=O)N[C@@H](CO)C(=O)NCC(=O)NCC(=O)N[C@H](C(=O)N[C@H](C(=O)N[C@@H](CCCCN)C(=O)N[C@@H](CC(N)=O)C(=O)N[C@@H](CC(N)=O)C(=O)N[C@@H](Cc1ccccc1)C(=O)N[C@H](C(=O)N1CCC[C@H]1C(=O)N[C@H](C(=O)N[C@@H](CC(N)=O)C(=O)N[C@H](C(=O)NCC(=O)N[C@@H](CO)C(=O)N[C@@H](CCCCN)C(=O)N[C@@H](C)C(=O)N[C@@H](Cc1ccccc1)C(N)=O)C(C)C)[C@@H](C)O)C(C)C)C(C)C)C(C)C [hαCGRP] | 47 ± 7% | 53 ± 8% | 128 ± 10% | 36 ± 8% | 106 ± 14% | 141 nM | 18.6 nM | 66.1 nM | 123 nM | 22.4 nM
CC(C)C[C@H](NC(=O)[C@H](CCCCN)NC(=O)CNC(=O)[C@H](CC(C)C)NC(=O)[C@@H](NC(=O)[C@@H]1CSSC[C@H](N)C(=O)N[C@@H](CO)C(=O)N[C@@H](CC(N)=O)C(=O)N[C@@H](CC(C)C)C(=O)N[C@@H](CO)C(=O)N[C@@H]([C@@H](C)O)C(=O)N1)C(C)C)C(=O)N[C@@H](CO)C(=O)N[C@@H](CCC(N)=O)C(=O)N[C@@H](CCC(=O)O)C(=O)N[C@@H](CC(C)C)C(=O)N[C@@H](Cc1c[nH]cn1)C(=O)N[C@@H](CCCCN)C(=O)N[C@@H](CC(C)C)C(=O)N[C@@H](CCC(N)=O)C(=O)N[C@H](C(=O)N[C@@H](Cc1ccc(O)cc1)C(=O)N1CCC[C@H]1C(=O)N[C@@H](CCCNC(=N)N)C(=O)N[C@H](C(=O)N[C@@H](CC(N)=O)C(=O)N[C@H](C(=O)NCC(=O)N[C@@H](CO)C(=O)NCC(=O)N[C@H](C(=O)N1CCC[C@H]1C(N)=O)[C@@H](C)O)[C@@H](C)O)[C@@H](C)O)[C@@H](C)O [sCT] | 102 ± 6% | 84 ± 4% | 100 ± 1% | 113 ± 10% | 119 ± 12% | – | – | – | – | –
CSCC[C@H](NC(=O)CNC(=O)[C@H](CO)NC(=O)[C@H](Cc1ccccc1)NC(=O)[C@H](CCCNC(=N)N)NC(=O)[C@H](Cc1c[nH]cn1)NC(=O)[C@H](Cc1ccccc1)NC(=O)[C@H](CC(N)=O)NC(=O)[C@H](CC(N)=O)NC(=O)[C@H](CC(C)C)NC(=O)[C@H](CC(N)=O)NC(=O)[C@H](CCCNC(=N)N)NC(=O)[C@H](Cc1c[nH]c2ccccc12)NC(=O)[C@H](Cc1ccc(O)cc1)NC(=O)[C@H](C)NC(=O)[C@H](CO)NC(=O)[C@H](CC(C)C)NC(=O)[C@@H](NC(=O)[C@@H]1CSSC[C@H](N)C(=O)N[C@@H](CO)C(=O)N[C@@H](CC(N)=O)C(=O)N[C@@H](CC(C)C)C(=O)N[C@@H](CO)C(=O)N[C@@H]([C@@H](C)O)C(=O)N1)C(C)C)C(=O)NCC(=O)N[C@@H](Cc1ccccc1)C(=O)NCC(=O)N1CCC[C@H]1C(=O)N[C@@H](CCC(=O)O)C(=O)N[C@H](C(=O)N1CCC[C@H]1C(N)=O)[C@@H](C)O [pCT] (H-CSNLSTCVLSAYWRNLNNFHRFSGMGFGPETP-NH2; disulfide 1-7) | 87 ± 11% | 113 ± 8% | 100 ± 2% | 137 ± 13% | 131 ± 9% | 0.234 nM | 0.162 nM | 0.0316 nM | 1.15 nM | 0.0316 nM
